Structures can show the parent of a compound that is named as a salt. Where two headings read alike, the source gives them in different places.
What was measured:
[1] = target: N-terminal GST tagged recombinant human RET cytoplasmic domain (aa 658-end), wild type RET kinase (Homo sapiens (Human), UniProt P07949); assay: RET Enzyme Assay (HTRF KinEASE-TK), wild type RET; type: biochemical; details: wild type RET, 1 mM ATP
[2] = target: Kif5b-RET fusion protein in HEK-293 cells (Homo sapiens, UniProt P07949); assay: cell-based
Sequence of Kif5b-RET fusion protein in HEK-293 cells (P07949 29-1114 limits assumed): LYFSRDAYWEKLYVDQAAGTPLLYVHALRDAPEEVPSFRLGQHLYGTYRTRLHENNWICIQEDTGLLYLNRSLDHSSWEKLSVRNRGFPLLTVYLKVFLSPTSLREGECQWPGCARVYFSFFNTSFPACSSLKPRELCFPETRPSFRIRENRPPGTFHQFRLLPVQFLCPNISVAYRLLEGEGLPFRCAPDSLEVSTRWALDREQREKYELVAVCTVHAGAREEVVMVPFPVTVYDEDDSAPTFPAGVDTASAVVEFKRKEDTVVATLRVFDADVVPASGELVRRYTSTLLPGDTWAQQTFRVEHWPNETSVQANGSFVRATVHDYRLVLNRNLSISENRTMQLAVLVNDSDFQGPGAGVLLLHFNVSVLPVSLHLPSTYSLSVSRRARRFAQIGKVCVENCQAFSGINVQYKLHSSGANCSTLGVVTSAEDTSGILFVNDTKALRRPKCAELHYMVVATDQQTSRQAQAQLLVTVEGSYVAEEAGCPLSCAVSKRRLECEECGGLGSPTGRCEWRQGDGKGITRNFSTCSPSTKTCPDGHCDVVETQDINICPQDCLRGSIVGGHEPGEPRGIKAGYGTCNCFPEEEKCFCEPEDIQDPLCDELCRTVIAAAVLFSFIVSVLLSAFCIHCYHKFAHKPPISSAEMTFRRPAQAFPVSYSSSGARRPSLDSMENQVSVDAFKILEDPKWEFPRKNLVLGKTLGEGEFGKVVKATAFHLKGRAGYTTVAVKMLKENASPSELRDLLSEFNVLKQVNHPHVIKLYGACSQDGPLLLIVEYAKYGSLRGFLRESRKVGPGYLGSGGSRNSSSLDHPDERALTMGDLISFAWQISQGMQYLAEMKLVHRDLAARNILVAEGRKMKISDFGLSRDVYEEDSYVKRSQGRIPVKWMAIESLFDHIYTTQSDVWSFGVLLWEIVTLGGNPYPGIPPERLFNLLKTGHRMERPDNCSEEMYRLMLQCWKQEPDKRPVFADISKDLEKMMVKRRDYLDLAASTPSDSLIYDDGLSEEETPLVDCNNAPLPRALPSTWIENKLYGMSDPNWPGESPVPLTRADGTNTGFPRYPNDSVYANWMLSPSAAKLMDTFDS

[3] = target: human KDR protein in HEK-293 cells (Homo sapiens (Human), UniProt P35968); assay: KDR Cell Assay (phospho-KDR in HEK-293 cells expressing inducible KDR); type: cell-based; details: pKDR Cell HEK 10% FBS IC50, HEK-293 cells expressing inducible KDR, VEGF stimulated
Sequence of human KDR protein in HEK-293 cells (P35968 20-1356): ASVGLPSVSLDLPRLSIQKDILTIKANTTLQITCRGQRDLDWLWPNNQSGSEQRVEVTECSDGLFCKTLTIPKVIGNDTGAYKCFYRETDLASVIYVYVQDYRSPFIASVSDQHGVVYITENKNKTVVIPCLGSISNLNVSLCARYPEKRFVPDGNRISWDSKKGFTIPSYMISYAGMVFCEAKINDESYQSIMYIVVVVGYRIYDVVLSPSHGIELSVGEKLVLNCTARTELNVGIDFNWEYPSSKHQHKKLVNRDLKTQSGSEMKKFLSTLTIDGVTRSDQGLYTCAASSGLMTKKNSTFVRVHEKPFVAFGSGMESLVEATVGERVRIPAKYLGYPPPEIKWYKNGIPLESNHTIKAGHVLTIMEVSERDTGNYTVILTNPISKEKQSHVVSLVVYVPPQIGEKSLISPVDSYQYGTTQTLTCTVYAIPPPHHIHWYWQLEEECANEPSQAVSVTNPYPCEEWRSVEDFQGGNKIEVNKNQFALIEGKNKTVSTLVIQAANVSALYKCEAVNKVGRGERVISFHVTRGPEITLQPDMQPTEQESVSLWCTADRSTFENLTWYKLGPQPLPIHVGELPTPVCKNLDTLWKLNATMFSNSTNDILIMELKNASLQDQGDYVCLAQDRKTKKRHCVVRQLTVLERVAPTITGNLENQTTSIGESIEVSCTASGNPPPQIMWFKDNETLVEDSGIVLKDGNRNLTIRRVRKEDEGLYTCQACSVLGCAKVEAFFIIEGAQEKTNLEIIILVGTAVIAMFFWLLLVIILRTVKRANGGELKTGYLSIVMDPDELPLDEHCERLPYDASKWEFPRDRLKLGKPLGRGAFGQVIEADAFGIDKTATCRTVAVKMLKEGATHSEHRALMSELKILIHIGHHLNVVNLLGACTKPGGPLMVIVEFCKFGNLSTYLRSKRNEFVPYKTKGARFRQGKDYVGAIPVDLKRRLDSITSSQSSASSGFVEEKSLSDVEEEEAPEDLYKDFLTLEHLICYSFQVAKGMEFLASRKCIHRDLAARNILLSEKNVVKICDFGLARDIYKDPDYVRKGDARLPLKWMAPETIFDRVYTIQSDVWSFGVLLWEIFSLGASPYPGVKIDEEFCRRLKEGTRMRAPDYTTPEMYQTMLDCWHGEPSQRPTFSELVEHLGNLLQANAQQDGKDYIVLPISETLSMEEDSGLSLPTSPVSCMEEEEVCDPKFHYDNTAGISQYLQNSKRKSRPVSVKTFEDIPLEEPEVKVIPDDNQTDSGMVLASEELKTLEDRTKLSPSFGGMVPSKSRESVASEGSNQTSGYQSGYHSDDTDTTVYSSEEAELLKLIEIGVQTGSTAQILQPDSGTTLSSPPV
In short: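 HEK-293 cells with inducible human KDR were treated with compound for 1 h in DMEM (0.25% DMSO final), then lysed. Phospho-KDR was quantified by Meso Scale immunoassay, expressed as percent of control, and IC50 taken where a 4-parameter logistic fit crossed 50 POC.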

[4] = HEK-293 cells expressing Kif5b-RET, phospho-RET(Tyr1062), read-out: KIF5B-RET pTYR1062 Cell IC50

Sequence of N-terminal GST tagged recombinant human RET cytoplasmic domain (aa 658-end), wild type RET kinase (P07949 658-1114): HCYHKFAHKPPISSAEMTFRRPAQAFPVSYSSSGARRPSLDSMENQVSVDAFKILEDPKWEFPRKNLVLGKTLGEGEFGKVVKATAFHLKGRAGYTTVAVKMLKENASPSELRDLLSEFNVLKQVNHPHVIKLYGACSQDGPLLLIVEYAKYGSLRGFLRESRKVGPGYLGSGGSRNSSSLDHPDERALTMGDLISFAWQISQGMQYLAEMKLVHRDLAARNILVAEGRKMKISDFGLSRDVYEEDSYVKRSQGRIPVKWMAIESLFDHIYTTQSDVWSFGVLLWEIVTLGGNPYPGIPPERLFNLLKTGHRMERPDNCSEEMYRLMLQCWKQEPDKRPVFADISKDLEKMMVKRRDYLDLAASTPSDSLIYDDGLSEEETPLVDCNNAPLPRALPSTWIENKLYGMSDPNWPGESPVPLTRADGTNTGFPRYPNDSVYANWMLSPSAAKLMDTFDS

Row | IC50 [1] | IC50 [2, 4] | IC50 ([3]; 10% FBS) | IC50 ([2]; HEK-293 cells expressing Kif5b-RET, read-out: KIF5B-RET pTYR1062 Cell IC50) | Compound | IC50 [2] | IC50 [3]
1 | 44 nM | 70.4 nM | 1430 nM |  | COC[C@H](O)CN1CCN(c2ccc(-c3cc(-c4cnn(C)c4)cn4ncc(C#N)c34)cn2)CC1 [Example 151, (R)-4-(6-(4-(2-hydroxy-3-methoxypropyl)piperazin-1-yl)pyridin-3-yl)-6-(1-methyl-1H-pyrazol-4-yl)pyrazolo[1,5-a]pyridine-3-carbonitrile] |  | 
2 | 5.6 nM | 5.4 nM | 103 nM |  | Cn1cc(-c2cc(-c3ccc(N4CCC(C(=O)NCC(F)(F)F)CC4)nc3)c3c(C#N)cnn3c2)cn1 [Example 243, 1-(5-(3-cyano-6-(1-methyl-1H-pyrazol-4-yl)pyrazolo[1,5-a]pyridin-4-yl)pyridin-2-yl)-N-(2,2,2-trifluoroethyl)piperidine-4-carboxamide] |  | 
3 | 26.6 nM | 33.5 nM | 998 nM |  | CC(C)NC(=O)CC1CCN(c2ccc(-c3cc(-c4cnn(C)c4)cn4ncc(C#N)c34)cn2)CC1 [Example 249, 2-(1-(5-(3-cyano-6-(1-methyl-1H-pyrazol-4-yl)pyrazolo[1,5-a]pyridin-4-yl)pyridin-2-yl)piperidin-4-yl)-N-isopropylacetamide] |  | 
4 | 15.9 nM | 20.4 nM | 871 nM |  | CC(C)NC(=O)NC1CCN(c2ccc(-c3cc(-c4cnn(C)c4)cn4ncc(C#N)c34)cn2)CC1 [Example 187, 1-(1-(5-(3-cyano-6-(1-methyl-1H-pyrazol-4-yl)pyrazolo[1,5-a]pyridin-4-yl)pyridin-2-yl)piperidin-4-yl)-3-isopropylurea] |  | 
5 | 12.9 nM | 4.5 nM | 735 nM |  | CCC1(C(=O)NC(C)C)CCN(c2ccc(-c3cc(-c4cnn(C)c4)cn4ncc(C#N)c34)cn2)CC1 [Example 256, 1-(5-(3-cyano-6-(1-methyl-1H-pyrazol-4-yl)pyrazolo[1,5-a]pyridin-4-yl)pyridin-2-yl)-4-ethyl-N-isopropylpiperidine-4-carboxamide] |  | 
6 | 16.8 nM |  |  | 5.3 nM | COc1ccc(CN2CCN(c3ccc(-c4cc(-c5cnn(C[C@@H](C)O)c5)cn5ncc(C#N)c45)cn3)CC2)cn1 [Example 700, (R)-6-(1-(2-hydroxypropyl)-1H-pyrazol-4-yl)-4-(6-(4-((6-methoxypyridin-3-yl)methyl)piperazin-1-yl)pyridin-3-yl)pyrazolo[5-a]pyridine-3-carbonitrile] |  | 347 nM
7 | 16.2 nM | 47 nM | 207 nM |  | Cn1cc(-c2cc(-c3ccc(N4CCN(S(C)(=O)=O)CC4)nc3)c3c(Cl)cnn3c2)cn1 [Example 332, 3-chloro-6-(1-methyl-1H-pyrazol-4-yl)-4-(6-(4-(methylsulfonyl)piperazin-1-yl)pyridin-3-yl)pyrazolo[1,5-a]pyridine] |  | 
8 | 11.5 nM | 14.3 nM | 628 nM |  | CC(C)C(=O)NC1CCN(c2ccc(-c3cc(-c4cnn(C)c4)cn4ncc(C#N)c34)cn2)CC1 [Example 185, N-(1-(5-(3-cyano-6-(1-methyl-1H-pyrazol-4-yl)pyrazolo[1,5-a]pyridin-4-yl)pyridin-2-yl)piperidin-4-yl)isobutyramide] |  | 
9 | 6.9 nM | 5.6 nM | 279 nM |  | C[C@H](NC(=O)C1CCN(c2ccc(-c3cc(-c4cnn(C)c4)cn4ncc(C#N)c34)cn2)CC1)C(F)(F)F [Example 231, (S)-1-(5-(3-cyano-6-(1-methyl-1H-pyrazol-4-yl)pyrazolo[1,5-a]pyridin-4-yl)pyridin-2-yl)-N-(1,1,1-trifluoropropan-2-yl)piperidine-4-carboxamide] |  | 

Row | Compound | IC50 [1] | IC50 [2, 4] | IC50 ([3]; 10% FBS) | IC50 ([2]; HEK-293 cells expressing Kif5b-RET, read-out: KIF5B-RET pTYR1062 Cell IC50) | IC50 [2] | IC50 [3]
10 | COc1cccnc1CN1CCN(c2ccc(-c3cc(-c4cnn(C)c4)cn4ncc(C#N)c34)cn2)CC1 [Example 463, 4-(6-(4-((3-methoxypyridin-2-yl)methyl)piperazin-1-yl)pyridin-3-yl)-6-(1-methyl-1H-pyrazol-4-yl)pyrazolo[1,5-a]pyridine-3-carbonitrile formate] | 9.7 nM |  |  |  | 17.7 nM | 678 nM

Reference: patent publication US10023570B2 (Array BioPharma, Inc., priority 2015, dated 2018)
